How the values were obtained:
[1] = target: T1, Muscarinic acetylcholine receptor M4 (Homo sapiens, UniProt P08173)
T1 sequence (P08173 whole entry): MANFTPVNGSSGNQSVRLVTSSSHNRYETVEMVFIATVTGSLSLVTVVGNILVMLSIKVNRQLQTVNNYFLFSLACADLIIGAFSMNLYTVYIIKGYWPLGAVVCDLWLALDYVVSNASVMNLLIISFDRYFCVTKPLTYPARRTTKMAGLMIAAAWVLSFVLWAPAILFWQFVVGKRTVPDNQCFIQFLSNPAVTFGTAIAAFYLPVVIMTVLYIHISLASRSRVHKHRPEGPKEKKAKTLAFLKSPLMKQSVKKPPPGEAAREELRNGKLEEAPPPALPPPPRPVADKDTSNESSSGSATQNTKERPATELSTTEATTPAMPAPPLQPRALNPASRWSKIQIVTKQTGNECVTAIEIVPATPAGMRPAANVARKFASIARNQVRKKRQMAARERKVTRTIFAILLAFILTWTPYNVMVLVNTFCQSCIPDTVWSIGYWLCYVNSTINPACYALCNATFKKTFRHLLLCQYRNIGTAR

[2] = target: T2, Muscarinic acetylcholine receptor M5 (Homo sapiens, UniProt P08912)
T2 sequence (P08912 whole entry): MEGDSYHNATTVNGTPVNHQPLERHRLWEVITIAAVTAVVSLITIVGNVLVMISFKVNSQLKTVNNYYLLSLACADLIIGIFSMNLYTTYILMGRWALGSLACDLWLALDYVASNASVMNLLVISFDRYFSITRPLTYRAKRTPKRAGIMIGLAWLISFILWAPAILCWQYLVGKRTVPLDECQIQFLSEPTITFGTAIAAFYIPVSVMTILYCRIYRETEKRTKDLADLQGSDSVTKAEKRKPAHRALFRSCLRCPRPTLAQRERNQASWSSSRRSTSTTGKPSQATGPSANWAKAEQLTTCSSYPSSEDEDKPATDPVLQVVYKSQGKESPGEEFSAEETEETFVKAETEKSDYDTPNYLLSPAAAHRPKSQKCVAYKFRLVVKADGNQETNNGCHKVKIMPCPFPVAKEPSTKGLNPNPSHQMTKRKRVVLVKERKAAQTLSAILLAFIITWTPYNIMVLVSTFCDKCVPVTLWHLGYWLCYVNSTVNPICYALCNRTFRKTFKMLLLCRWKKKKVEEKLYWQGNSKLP

[3] = target: T3, Peroxisome proliferator-activated receptor gamma (Homo sapiens, UniProt P37231); format: functional
T3 sequence (P37231 whole entry): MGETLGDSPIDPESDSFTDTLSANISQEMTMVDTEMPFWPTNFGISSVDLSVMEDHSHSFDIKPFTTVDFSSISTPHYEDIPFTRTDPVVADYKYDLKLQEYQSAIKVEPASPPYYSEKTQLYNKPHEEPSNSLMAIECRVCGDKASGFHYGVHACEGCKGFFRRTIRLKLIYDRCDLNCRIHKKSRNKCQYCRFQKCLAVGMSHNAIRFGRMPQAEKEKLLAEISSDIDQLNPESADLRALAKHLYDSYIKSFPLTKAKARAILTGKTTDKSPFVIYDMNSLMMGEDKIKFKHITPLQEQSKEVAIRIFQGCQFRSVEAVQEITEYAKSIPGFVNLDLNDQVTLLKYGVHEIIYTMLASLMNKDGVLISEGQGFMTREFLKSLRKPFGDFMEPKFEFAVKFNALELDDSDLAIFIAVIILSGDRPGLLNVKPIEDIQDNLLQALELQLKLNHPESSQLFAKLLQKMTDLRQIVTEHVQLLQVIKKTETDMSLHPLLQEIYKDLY

[4] = target: Voltage-dependent L-type calcium channel subunit alpha-1C (Homo sapiens, UniProt Q13936); format: functional, cell-based
Voltage-dependent L-type calcium channel subunit alpha-1C, sequence (Q13936 whole entry): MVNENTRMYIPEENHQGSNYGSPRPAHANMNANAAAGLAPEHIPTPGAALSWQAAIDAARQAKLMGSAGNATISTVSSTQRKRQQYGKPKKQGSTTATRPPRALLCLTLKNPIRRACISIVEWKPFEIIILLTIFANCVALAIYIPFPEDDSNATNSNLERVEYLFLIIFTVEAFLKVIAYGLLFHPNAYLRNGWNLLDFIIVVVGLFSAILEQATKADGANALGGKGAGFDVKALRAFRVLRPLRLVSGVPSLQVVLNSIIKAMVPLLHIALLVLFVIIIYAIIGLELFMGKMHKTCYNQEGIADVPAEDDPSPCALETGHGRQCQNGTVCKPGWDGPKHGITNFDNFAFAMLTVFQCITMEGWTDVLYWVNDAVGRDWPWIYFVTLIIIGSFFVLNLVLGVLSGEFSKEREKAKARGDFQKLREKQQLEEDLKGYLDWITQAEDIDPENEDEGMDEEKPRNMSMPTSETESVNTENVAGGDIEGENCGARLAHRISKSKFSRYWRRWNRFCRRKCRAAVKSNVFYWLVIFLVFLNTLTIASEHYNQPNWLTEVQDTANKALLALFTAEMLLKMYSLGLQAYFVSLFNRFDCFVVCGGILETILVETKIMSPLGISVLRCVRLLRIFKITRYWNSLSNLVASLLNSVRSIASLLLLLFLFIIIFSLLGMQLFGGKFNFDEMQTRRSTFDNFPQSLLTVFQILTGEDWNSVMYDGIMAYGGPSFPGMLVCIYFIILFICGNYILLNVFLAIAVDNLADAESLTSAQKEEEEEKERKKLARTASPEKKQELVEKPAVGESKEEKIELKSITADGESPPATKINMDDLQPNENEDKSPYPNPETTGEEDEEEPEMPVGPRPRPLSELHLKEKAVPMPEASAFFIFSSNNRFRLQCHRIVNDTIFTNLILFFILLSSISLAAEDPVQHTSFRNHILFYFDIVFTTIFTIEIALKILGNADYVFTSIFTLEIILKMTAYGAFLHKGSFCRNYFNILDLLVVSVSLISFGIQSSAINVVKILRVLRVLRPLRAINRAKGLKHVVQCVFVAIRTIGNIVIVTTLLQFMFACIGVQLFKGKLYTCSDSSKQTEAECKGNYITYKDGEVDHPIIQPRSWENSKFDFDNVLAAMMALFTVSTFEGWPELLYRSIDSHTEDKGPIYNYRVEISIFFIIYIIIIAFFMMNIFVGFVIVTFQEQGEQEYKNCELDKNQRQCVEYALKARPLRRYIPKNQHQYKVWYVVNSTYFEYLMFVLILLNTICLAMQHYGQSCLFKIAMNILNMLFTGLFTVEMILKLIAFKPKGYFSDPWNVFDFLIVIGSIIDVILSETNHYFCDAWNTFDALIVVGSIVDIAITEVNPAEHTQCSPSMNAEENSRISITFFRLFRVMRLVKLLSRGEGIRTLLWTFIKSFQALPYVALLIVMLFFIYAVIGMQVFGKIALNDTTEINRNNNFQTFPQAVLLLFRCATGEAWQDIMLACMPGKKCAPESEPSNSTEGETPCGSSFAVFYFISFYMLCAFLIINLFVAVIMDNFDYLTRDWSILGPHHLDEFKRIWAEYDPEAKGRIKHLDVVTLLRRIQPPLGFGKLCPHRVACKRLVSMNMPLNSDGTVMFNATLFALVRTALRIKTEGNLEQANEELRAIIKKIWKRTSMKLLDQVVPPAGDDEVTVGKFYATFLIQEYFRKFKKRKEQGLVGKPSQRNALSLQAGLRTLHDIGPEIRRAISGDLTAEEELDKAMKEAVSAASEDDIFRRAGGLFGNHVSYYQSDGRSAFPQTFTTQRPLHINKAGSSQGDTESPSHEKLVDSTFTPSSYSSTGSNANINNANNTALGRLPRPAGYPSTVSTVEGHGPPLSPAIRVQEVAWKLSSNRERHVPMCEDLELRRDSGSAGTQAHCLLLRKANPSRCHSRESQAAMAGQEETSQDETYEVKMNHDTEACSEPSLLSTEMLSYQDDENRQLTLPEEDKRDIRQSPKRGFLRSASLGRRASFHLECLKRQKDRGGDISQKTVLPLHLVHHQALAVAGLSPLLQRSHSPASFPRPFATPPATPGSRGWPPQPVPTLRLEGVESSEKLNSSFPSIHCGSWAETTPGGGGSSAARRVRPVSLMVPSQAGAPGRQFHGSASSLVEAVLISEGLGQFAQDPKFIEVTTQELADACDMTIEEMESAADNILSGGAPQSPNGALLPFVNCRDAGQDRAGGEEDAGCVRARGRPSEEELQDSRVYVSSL

[5] = target: Gamma-aminobutyric acid type B receptor subunit 1 (Homo sapiens, UniProt Q9UBS5)
Gamma-aminobutyric acid type B receptor subunit 1, sequence (Q9UBS5 whole entry): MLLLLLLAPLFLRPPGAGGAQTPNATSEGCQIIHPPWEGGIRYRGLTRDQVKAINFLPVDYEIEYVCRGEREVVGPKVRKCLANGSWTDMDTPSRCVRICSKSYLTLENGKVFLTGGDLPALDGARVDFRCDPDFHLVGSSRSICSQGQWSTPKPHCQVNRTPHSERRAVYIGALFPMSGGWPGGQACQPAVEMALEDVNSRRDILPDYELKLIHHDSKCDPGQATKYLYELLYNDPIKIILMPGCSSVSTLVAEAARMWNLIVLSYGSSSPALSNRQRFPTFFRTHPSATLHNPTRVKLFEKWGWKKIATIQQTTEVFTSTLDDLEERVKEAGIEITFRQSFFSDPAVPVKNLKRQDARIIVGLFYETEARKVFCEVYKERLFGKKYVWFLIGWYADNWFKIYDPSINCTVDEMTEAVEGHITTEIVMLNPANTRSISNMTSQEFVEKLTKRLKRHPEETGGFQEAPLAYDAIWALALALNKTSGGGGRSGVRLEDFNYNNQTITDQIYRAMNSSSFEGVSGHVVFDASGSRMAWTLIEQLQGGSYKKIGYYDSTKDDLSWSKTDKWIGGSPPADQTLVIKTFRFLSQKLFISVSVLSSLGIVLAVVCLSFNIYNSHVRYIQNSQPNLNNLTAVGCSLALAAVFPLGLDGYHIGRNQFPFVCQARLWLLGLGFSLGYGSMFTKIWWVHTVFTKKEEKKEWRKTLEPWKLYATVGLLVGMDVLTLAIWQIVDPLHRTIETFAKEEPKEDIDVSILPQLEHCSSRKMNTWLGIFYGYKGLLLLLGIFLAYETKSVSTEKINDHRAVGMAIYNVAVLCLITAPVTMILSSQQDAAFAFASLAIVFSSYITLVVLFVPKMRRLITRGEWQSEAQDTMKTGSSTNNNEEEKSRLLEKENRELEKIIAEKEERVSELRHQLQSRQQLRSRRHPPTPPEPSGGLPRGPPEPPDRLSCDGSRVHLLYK

Cannabinoid receptor 1 = Cannabinoid receptor 1 (Homo sapiens, UniProt P21554); format: functional
Cannabinoid receptor 1, sequence (P21554 whole entry): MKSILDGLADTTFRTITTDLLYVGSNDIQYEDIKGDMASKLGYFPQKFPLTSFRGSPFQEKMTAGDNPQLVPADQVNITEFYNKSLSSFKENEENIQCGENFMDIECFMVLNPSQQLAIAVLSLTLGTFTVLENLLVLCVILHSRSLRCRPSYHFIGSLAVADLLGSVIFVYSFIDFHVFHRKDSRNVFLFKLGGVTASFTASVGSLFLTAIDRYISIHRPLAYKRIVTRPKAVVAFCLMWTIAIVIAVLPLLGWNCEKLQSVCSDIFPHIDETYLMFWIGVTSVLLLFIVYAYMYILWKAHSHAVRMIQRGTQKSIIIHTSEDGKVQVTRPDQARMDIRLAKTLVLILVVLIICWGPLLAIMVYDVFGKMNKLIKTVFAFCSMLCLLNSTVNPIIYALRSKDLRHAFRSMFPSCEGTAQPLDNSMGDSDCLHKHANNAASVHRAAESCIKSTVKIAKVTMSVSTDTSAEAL

[6] = target: 5-hydroxytryptamine receptor 6 (Homo sapiens, UniProt P50406)
5-hydroxytryptamine receptor 6, sequence (P50406 whole entry): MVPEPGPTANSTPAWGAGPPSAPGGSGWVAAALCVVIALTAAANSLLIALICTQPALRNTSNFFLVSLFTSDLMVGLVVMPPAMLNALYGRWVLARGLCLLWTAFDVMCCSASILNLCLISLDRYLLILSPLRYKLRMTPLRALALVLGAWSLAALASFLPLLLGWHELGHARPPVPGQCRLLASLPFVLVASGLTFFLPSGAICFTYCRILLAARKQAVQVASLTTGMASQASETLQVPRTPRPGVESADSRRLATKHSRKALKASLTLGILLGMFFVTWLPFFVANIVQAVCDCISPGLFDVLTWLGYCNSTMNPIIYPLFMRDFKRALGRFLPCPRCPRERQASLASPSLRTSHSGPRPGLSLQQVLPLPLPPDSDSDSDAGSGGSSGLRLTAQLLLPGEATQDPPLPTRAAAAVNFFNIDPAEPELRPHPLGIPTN

[7] = target: 5-hydroxytryptamine receptor 5A (Homo sapiens, UniProt P47898)
5-hydroxytryptamine receptor 5A, sequence (P47898 whole entry): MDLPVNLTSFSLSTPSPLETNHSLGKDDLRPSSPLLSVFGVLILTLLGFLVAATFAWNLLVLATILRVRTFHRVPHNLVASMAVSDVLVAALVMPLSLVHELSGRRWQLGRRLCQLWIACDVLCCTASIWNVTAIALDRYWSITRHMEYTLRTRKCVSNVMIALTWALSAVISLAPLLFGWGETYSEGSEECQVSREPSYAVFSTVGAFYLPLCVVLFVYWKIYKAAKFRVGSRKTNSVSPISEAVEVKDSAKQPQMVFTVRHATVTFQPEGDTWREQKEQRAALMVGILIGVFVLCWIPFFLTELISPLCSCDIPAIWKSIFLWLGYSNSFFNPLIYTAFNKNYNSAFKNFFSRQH

D(1B) dopamine receptor = D(1B) dopamine receptor (Homo sapiens, UniProt P21918)
D(1B) dopamine receptor, sequence (P21918 whole entry): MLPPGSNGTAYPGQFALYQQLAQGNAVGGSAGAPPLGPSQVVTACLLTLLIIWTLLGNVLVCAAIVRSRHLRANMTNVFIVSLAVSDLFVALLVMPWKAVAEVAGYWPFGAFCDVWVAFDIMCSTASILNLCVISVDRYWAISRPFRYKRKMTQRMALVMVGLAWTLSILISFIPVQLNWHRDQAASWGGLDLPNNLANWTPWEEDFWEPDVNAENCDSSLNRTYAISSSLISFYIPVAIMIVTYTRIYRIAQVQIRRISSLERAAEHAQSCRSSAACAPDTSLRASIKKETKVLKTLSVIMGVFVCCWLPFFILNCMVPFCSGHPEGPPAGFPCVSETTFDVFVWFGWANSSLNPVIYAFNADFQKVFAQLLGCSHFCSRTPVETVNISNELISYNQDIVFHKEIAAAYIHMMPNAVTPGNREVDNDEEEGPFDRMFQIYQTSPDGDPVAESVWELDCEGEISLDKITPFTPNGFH

[8] = target: T4, Type-2 angiotensin II receptor (Homo sapiens, UniProt P50052); format: functional
T4 sequence (P50052 whole entry): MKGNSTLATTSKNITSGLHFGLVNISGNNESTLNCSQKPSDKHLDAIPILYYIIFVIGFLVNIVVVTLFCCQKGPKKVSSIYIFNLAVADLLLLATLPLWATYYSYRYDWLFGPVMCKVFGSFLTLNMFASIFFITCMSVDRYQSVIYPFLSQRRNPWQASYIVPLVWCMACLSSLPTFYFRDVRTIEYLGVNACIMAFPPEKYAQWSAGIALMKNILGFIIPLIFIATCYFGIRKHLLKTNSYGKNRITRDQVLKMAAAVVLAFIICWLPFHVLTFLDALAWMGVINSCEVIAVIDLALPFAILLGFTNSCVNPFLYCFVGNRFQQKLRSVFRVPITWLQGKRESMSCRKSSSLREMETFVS

[9] = target: Hydroxycarboxylic acid receptor 2 (Homo sapiens, UniProt Q8TDS4)
[10] = target: Synaptic vesicular amine transporter (Rattus norvegicus, UniProt Q01827); format: functional
[11] = target: T5, 5-hydroxytryptamine receptor 1A (Homo sapiens, UniProt P08908)
T5 sequence (P08908 whole entry): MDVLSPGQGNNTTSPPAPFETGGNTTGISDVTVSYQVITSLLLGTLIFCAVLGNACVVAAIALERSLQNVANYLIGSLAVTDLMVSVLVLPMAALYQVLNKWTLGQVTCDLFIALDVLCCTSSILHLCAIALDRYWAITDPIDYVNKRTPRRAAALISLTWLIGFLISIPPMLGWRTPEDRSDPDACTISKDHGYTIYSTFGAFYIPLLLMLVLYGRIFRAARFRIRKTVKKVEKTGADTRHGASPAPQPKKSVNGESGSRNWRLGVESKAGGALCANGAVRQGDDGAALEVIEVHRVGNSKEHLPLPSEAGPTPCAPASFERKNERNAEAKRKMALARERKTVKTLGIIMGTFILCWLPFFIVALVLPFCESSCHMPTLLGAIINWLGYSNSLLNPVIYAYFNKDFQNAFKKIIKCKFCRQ
Further: assay procedure not described here.

In the case of `C[N+]12CCC(CC1)C(OC(=O)C(O)(c1ccccc1)c1ccccc1)C2` (stereo not given), the AC50 [1] is reported as 0.0047 µM and the AC50 [2] is reported as 0.0068 µM.
With `CO/N=C(\C(=O)N[C@@H]1C(=O)N2C(C(=O)O)=CCS[C@H]12)c1csc(N)n1` [CEFTIZOXIME] the AC50 [3] was > 30 µM.
`CO/N=C(\C(=O)N[C@@H]1C(=O)N2C(C(=O)O)=C(CSc3nc(=O)c(=O)[nH]n3C)CS[C@H]12)c1csc(N)n1` [CEFTRIAXONE] was tested, and the AC50 [4] was > 50 µM and the AC50 [3] was 1.4 µM.
For `COc1cc(N)c(Cl)cc1C(=O)NC1CCN(CCCOc2ccc(F)cc2)CC1OC` (stereo not given) [CISAPRIDE], the AC50 [5] was > 10 µM and the AC50 [4] was > 50 µM.
For `CCOC(=O)C(C)(C)Oc1ccc(Cl)cc1` [CLOFIBRATE], the AC50 [3] was > 30 µM.
`CCCCOc1ccc(C(=O)CCN2CCCCC2)cc1` [DYCLONINE] was tested, and the AC50 [5] was > 10 µM, the AC50 (Cannabinoid receptor 1) was > 10 µM and the AC50 [1] was 13.4 µM. For the same compound, the AC50 [2] was 15.8 µM, the AC50 [6] was > 10 µM and the AC50 [7] was > 10 µM. For the same compound, the AC50 (D(1B) dopamine receptor) was > 10 µM.
In the case of `CC(C)NC[C@H](O)COc1ccc(CC(N)=O)cc1` [ESATENOLOL], the AC50 (Cannabinoid receptor 1) is reported as > 10 µM and the AC50 [6] is reported as > 10 µM.
For `NNC(=O)c1ccncc1` [ISONIAZID], the AC50 (Cannabinoid receptor 1) was > 10 µM and the AC50 [6] was > 10 µM.
With `O=C1Nc2ccc(Cl)cc2C(c2ccccc2Cl)=NC1O` (stereo not given) [LORAZEPAM] the AC50 [8] was > 100 µM and the AC50 [9] was > 10 µM.
For `Cc1ccnc2c1NC(=O)c1cccnc1N2C1CC1` [NEVIRAPINE], the AC50 (Cannabinoid receptor 1) was > 10 µM, the AC50 [1] was > 10 µM and the AC50 [2] was > 10 µM. The AC50 [6] was > 10 µM, the AC50 [7] was > 10 µM and the AC50 (D(1B) dopamine receptor) was > 10 µM.
`Fc1ccc([C@@H]2CCNC[C@H]2COc2ccc3c(c2)OCO3)cc1` [PAROXETINE] was tested, and the AC50 [5] was > 10 µM, the AC50 (Cannabinoid receptor 1) was > 10 µM and the AC50 [8] was > 100 µM. The AC50 [1] was 3.47 µM, the AC50 [4] was > 50 µM and the AC50 [7] was 5.63 µM. The AC50 [10] was 2.5 µM and the AC50 (D(1B) dopamine receptor) was > 10 µM.
For `CCC(=O)O[C@](Cc1ccccc1)(c1ccccc1)[C@H](C)CN(C)C` [PROPOXYPHENE], the AC50 [9] was > 10 µM.
`CCN(CC)CCCC(C)Nc1c2ccc(Cl)cc2nc2ccc(OC)cc12` (stereo not given) [QUINACRINE] gave an AC50 [11] of 2.26 µM.
With `CCOC(=O)[C@@H](N)Cc1ccc(-c2cc(O[C@H](c3ccc(Cl)cc3-n3ccc(C)n3)C(F)(F)F)nc(N)n2)cc1` [TELOTRISTAT ETHYL] the AC50 [3] was > 30 µM.
`CCCCCCCC(=O)CC[C@@H]1[C@@H](C/C=C\CCCC(=O)OC(C)C)[C@@H](O)C[C@H]1O` [UNOPROSTONE ISOPROPYL] was tested, and the AC50 [4] was > 50 µM.
For `CC(c1cc2ccccc2s1)N(O)C(N)=O` (stereo not given) [ZILEUTON], the AC50 [10] was > 30 µM.
